Data on 39 molecules can be found in PubChem BioAssay (NCI).

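How tested: cells in 96-well plates exposed to compound for 48 hours at five concentrations. Here, GI50 denotes the concentration required for 50% inhibition of growth. TGI marks complete inhibition of growth.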

This assay deals with MDA-MB-468 breast. The assay is described as follows: DTP human tumour cell line panel, 48 h.

The term GI50 denotes the concentration giving 50% growth inhibition. The term TGI denotes the concentration giving total growth inhibition. Read a high TGI as lower sensitivity of the cells. For `COc1cc(/C=C/C(=O)N2CCN(C(=O)c3cc(OC)c(OC)c(OC)c3)CC2)ccc1OCCCOc1cc2c(cc1OC)C(=O)N1CCC[C@H]1C=N2`, the 50% growth inhibitory concentration (GI50) was 102 nM and the total growth inhibition concentration (TGI) was determined as 336 nM.

Regarding `O=C1OCC2=C1C(c1ccc(Cl)c(Cl)c1)c1cc3c(cc1N2CCO)CCC3` (configuration not stated), the GI50 is 109 nM and the TGI amounted to 350 nM.

For the molecule `CCOC(=O)C(=O)/C(=C/N1C(=O)CC(=O)NC1=S)C(=O)OCC`, the GI50 is over 100000 nM and the TGI was over 100000 nM.

As for `CCCCCCCCCCCCCCCCC(=O)O.CCCCCCCCCCCCCCCCCC(=O)O.CCCCCCCCCCCCCCCCCC(=O)O.CCCCCCCCCCCCCCCCCC(=O)O.CCCCCCCCCCCCCCCCCC(=O)O.CO[CH-]OC12COC1CC(O)C1(C)C(O)C(OC(C)O)C3=C(C)C(OC(=O)C(O)C([NH-])c4ccccc4)CC(O)(C(OC(=O)c4ccccc4)C21)C3(C)C.[Cu+].[Zn].[Zn].[Zn].[Zn].[Zn]` (configuration not stated), the 50% growth inhibitory concentration (GI50) was 3.38 nM and the TGI is 16.6 nM.

`Oc1cc2ccccc2c(-c2c(O)c(O)cc3ccccc23)c1O`: the GI50 is 1090 nM and the TGI amounted to 17200 nM.

On to `Cc1ccc(NC(=O)c2sc3nc4c(cc3c2N)C(=O)CCC4)cc1C`, for which the GI50 was 314 nM and the TGI is over 100000 nM.

Turning to `O=c1oc2ccc(Br)cc2c(=O)n1-c1ccc(I)cc1F`, the GI50 was 547 nM and the TGI is 2040 nM.

Consider `Clc1ccc(-c2cc(-c3ccccc3)nc(NCCNc3ccnc4cc(Cl)ccc34)n2)cc1`, for which the GI50 is 1480 nM and the concentration for total growth inhibition (TGI) worked out at 3150 nM.

On to `CC(=O)c1cc(C(=O)c2ccc3c(c2)Sc2ccccc2N3)c2cc(C)ccn12`, for which the GI50 was 66.3 nM and the TGI was 7210 nM.

For the molecule `COc1cc(C(=O)Nc2cc(OC)c3ccn(C)c3c2)cc2c1C[C@]1(C)CC[C@@H](O)C(C)(C)[C@H]1O2`, the GI50 was 488 nM and the TGI turned out to be 3010 nM.

With `COc1ccc(/C=C/C(=O)c2ccc(OC)c(OC)c2)cc1O`, the GI50 is 3590 nM and the TGI was 19600 nM.

`CC1(C)[C@@H](OC(=O)CCC(=O)O)CC[C@]2(C)[C@H]3C(=O)C=C4[C@@H]5C[C@@](C)(C(=O)O)CC[C@]5(C)CC[C@@]4(C)[C@]3(C)CC[C@@H]12`: the GI50 is 78600 nM and the TGI was found to be 189000 nM.

For the molecule `COc1ccc(Nc2cc(C)nc(NCCCNc3ccnc4cc(Cl)ccc34)n2)cc1`, the GI50 was 1390 nM and the concentration for total growth inhibition (TGI) amounted to 2790 nM.

Regarding `CCN(CC)Cc1c(/C=C\c2cc(OC)c(OC)c(OC)c2)ccc(OC)c1O`, the GI50 is 7970 nM and the TGI came out at 34000 nM.

As for `Cn1c(=O)c(Oc2ccc(F)cc2F)cc2cnc(NC3CCS(=O)(=O)CC3)nc21`, the GI50 is over 25000 nM and the TGI is over 25000 nM.

`COc1ccc(C2=NN(C(=O)c3cc(OC)c(OC)c(OC)c3)C(c3ccc(N(C)C)cc3)C2)cc1` (configuration not stated): the GI50 is 236 nM and the TGI turned out to be 644 nM.

For `CN(C)c1ccc(/C=C/C2=[N+](C)c3ccccc3C2(C)C)cc1`, the GI50 is 555 nM and the TGI is 6190 nM.

On to `CCCCCCCCn1ccc2cc(NC(=O)Cn3cc(CN4CCCCC4)nn3)ccc21`, for which the GI50 is 1670 nM and the concentration for total growth inhibition (TGI) is 3730 nM.

Regarding `Cc1ccc(Cl)c(Nc2ccccc2C(=O)O)c1Cl`, the GI50 is 25900 nM and the TGI was determined as 67200 nM.

Take `CCN(CC)C1CCC(Nc2c(C(C)=O)cnc3ccc(-c4ccc(O)c(Cl)c4)cc23)CC1` (configuration not stated): the GI50 was 871 nM and the TGI turned out to be 15800 nM.

Regarding `COC1=CC(c2ccc[nH]2)=N/C1=C\c1[nH]c(C)c(C(=O)CCCCC(=O)Oc2ccc3c(c2)CCC2C3CC[C@]3(C)[C@@H](O)CC[C@@H]23)c1C` (some centres not stated), the GI50 was 4920 nM and the TGI was over 100000 nM.

Regarding `CN1C/C=C/CCOc2cccc(c2)-c2ccnc(n2)Nc2cccc(c2)C1`, the GI50 was 36.6 nM and the TGI was 107 nM.

For `O=C1c2cccc(NCCN=Cc3ccccc3O)c2C(=O)c2c(NCCN=Cc3ccccc3O)cccc21`, the TGI stood at 191 nM.

As to `CC(=O)Oc1ccc(/C(=C(\C)c2ccc(Cl)cc2)c2ccc(OCCN3CCCCC3)cc2)cc1`, the GI50 was 1450 nM and the TGI was determined as 3210 nM.

As for `NC(N)=N/N=C/c1ccc(-c2ccc(-c3cc(Cl)cc(Cl)c3)s2)cc1`, the GI50 is 1830 nM and the concentration for total growth inhibition (TGI) amounted to 3810 nM.

For the molecule `COc1ccc(/C=C2\C=C(c3ccccc3)N(CCc3ccccc3)C2=O)cc1OC`, the GI50 was 7570 nM and the TGI is 42400 nM.

Take `O=C(/C=C/c1csc(Br)n1)NO`: the GI50 is 2900 nM and the TGI was 21500 nM.

For `Cn1c(/C=C/[N+](=O)[O-])cc2ccccc21`, the GI50 was 1770 nM and the TGI worked out at 3370 nM.

Take `CCOc1cccc(-c2nc(N)nc(Nc3ccccc3SSc3ccccc3Nc3nc(N)nc(-c4cccc(OCC)c4)n3)n2)c1`: the GI50 was 24200 nM and the TGI is over 100000 nM.

Consider `O=C(Nc1n[nH]c2nnc(-c3cccnc3)cc12)C1CC1`, for which the GI50 is 805 nM and the TGI worked out at 5020 nM.

With `COc1ccc(N2CCN(C3=C(Cl)C(=O)c4ncccc4C3=O)CC2)cc1`, the GI50 was 1840 nM and the TGI came out at 3500 nM.

In the case of `Cn1cc(C2=C(c3cn(C)c4ccccc34)C(=O)NC2=O)c2ccccc21`, the GI50 is 650 nM and the TGI was over 25000 nM.

On to `N#C[Se]CCCNS(=O)(=O)C1CC2C=CC1C2` (configuration not stated), for which the GI50 was 1290 nM and the TGI is 4160 nM.

On to `CC1=C2C(=C[C@@](C)(COS(C)(=O)=O)[C@@H]2O)C(=O)[C@](C)(O)C12CC2`, for which the GI50 is 201 nM and the TGI is 519 nM.

With `CN1CCN(Cc2ccc(NC(=O)c3cccc(C#Cc4cnc(N)c5ncccc45)c3F)cc2C(F)(F)F)CC1`, the GI50 was 6200 nM and the TGI stood at 16000 nM.

Consider `COc1cc2c(cc1Nc1nc(Nc3cccc(F)c3C(N)=O)c3cc[nH]c3n1)N(C(=O)CN1CCN(C(C)C)CC1)CC2`, for which the GI50 was 2220 nM and the total growth inhibition concentration (TGI) was determined as 5730 nM.

In the case of `CC(=O)OC1CC2C3CCC4C[C@@H](NC(=O)C=C(C)C)CC[C@]4(C)C3CC[C@]2(C)[C@H]1C(C)N(C)C` (some centres not stated), the GI50 was 800 nM and the TGI was 2370 nM.

As for `COc1cc(-c2cc(-c3cc(OC)c(OC)c(OC)c3)nc3nc(N)[nH]c(=O)c23)ccc1Oc1ccnc2cc(Cl)ccc12`, the GI50 was 3240 nM and the TGI is over 100000 nM.

Consider `COc1cc(C(=O)N/N=C/c2ccc(N(C)C)cc2)cc(OC)c1OC`, for which the GI50 is 225 nM and the TGI is 1190 nM.
